Laboratory results: patent US5861393A, “Antithrombotic amidinophenylalanine and amidinopyridylalanine derivatives” (Pfizer Inc., priority 1993, dated 1999)
Structures can show the parent of a compound that is named as a salt.

Key:
Format in all cases: biochemical
[1] = molecular target: T1, bovine plasma plasmin (Bos taurus, UniProt P06868); assay: Chromogenic assay, inhibition of plasmin; settings: in vitro; substrate Chromozym PL; pH 8.0; 30 minutes at 30° C.
T1 construct: from tissue; host or cells: bovine plasma
T1 sequence (P06868 584-812 limits assumed): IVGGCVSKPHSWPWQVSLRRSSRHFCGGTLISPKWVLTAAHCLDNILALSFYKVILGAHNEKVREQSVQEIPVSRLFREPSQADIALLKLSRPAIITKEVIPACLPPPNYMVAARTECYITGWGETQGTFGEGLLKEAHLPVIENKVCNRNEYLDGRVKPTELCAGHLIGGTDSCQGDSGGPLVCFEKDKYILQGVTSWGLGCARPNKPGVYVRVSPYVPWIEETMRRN
T1 sequence (P06868 105-583 partner limits assumed): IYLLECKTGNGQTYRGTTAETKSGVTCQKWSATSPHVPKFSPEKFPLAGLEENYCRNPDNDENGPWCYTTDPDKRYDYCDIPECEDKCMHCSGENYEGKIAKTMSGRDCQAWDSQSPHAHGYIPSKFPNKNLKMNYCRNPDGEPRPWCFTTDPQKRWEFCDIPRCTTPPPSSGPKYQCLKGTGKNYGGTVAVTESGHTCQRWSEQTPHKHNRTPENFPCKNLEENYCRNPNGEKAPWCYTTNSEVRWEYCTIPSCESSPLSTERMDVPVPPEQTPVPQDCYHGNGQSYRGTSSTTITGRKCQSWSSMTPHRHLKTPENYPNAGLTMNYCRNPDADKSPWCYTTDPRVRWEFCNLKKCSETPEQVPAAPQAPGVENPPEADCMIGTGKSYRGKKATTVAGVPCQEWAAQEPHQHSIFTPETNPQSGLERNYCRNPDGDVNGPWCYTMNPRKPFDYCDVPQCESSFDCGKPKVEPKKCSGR
Method: (§1) The inhibition of thrombin, trypsin, plasmin or factor Xa is measured in 96 well plate chromogenic assays. The percentage inhibition and IC50 are calculated from triplicate samples of an 8 concentration dose-response curve. From the substrate Km and IC50, the Ki for each inhibitor is calculated. All assays are carried out in a total incubation of 200 μl of 50 mM HEPES and 150 mM NaCl at pH 8.0, and all compound dilutions are preincubated with enzyme at room temperature for 15 minutes prior to addition of substrate. After 30 minutes incubation at 30° C., the O.D. is measured at […] in a 96 well plate reader. Thrombin activity is measured using bovine thrombin and S2238 (H-D-Phe-Pip-Arg-pNA), bovine pancreatic trypsin is assayed with S2222 (Benz-Isoleu-Glu-Gly-Arg-pNA), bovine plasma plasmin is assayed with Chromozym PL (Tosyl-Gly-Pro-Lys-pNA)and bovine factor Xa is assayed in 50 mM Tris,150mM NaCl,pH 7.5 buffer with S2222.

[2] = molecular target: T2, bovine pancreatic trypsin (Bos taurus, UniProt P00760); assay: Chromogenic assay, inhibition of trypsin; settings: in vitro; substrate S2222; pH 8.0; 30 minutes at 30° C.
T2 construct: from tissue; host or cells: bovine pancreas
T2 sequence (P00760 24-246): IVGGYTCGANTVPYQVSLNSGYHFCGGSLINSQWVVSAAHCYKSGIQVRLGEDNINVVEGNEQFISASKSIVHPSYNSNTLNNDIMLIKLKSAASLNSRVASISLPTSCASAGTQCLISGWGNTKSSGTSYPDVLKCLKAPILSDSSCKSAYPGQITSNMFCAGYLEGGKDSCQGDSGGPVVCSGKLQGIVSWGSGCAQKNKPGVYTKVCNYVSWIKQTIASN
Method: as §1

[3] = molecular target: bovine thrombin (Bos taurus, UniProt P00735); assay: Chromogenic assay, inhibition of thrombin; settings: in vitro; substrate S2238; pH 8.0; 30 minutes at 30° C.
Method: as §1

## CC1=CCN(C(=O)[C@H](Cc2cccc(C(=N)N)c2)NS(=O)(=O)c2ccc3c(c2)C(CC(=O)N(C)C)N(C)CC3)[C@@H](C(=O)O)C1 (stereo partly drawn) [Example 5, 1-{N-[1(R,S)-(N,N-Dimethylcarbamoylmethyl)-2-methyl-1,2,3,4-tetrahydroisoquinoline-7-sulphonyl]-3-amidino-(S)-phenylalanyl}-4-methyl-1 2,3,6-tetrahydropyridine-2(R-carboxylic acid dihydrochloride]
[1]
  Ki: 6 µM
[2]
  Ki: 0.054 µM
[3]
  Ki: 0.0022 µM

## CC1=CCN(C(=O)[C@H](Cc2cccc(C(=N)N)c2)NS(=O)(=O)c2ccc3c(c2)CNCC3)C(C(=O)O)C1 (stereo partly drawn) [Example 15, 4-Methyl-1-[N-(1,2,3,4-tetrahydroisoquinoline-7-sulphonyl)-3-amidino-(S)-phenylalanvl]-1,2,3,6-tetrahydropyridine-2(R,S)-carboxylic acid dihydrochloride]
[1]
  Ki: 14 µM
[2]
  Ki: 0.32 µM
[3]
  Ki: 0.078 µM

## CC1=CCN(C(=O)[C@H](Cc2cccc(C(=N)N)c2)NS(=O)(=O)c2ccc3c(c2)CCN(C(C)C)CC3)[C@@H](C(=O)O)C1 [Example 8, 4-Methyl-1-{N-[3-(2-propyl]-2,3,4,5-tetrahydro-1H-3-benzazepine-7-sulphonyl-3-amidino-(S)-phenylalanyl}-1,2,3,6-tetrahydropyridine-2(R)-carboxylic acid dihydrochloride]
[1]
  Ki: 1.8 µM
[2]
  Ki: 0.04 µM
[3]
  Ki: 0.0064 µM

## C[C@@H]1CCN(C(=O)C(Cc2cccc(C(=N)N)c2)NS(=O)(=O)c2ccc3c(c2)CN(C)CC3)[C@@H](C(=O)O)C1 (stereo partly drawn) [Example 13, 4(R)-Methyl-1-[N-(2-methyl-1,2,3,4-tetrahydroisoquinoline-7-sulphonyl)-3-amidino-(R,S)-phenylalanyl]piperidine-2(R)-carboxylic acid dihydrochloride]
[1]
  Ki: 12 µM
[2]
  Ki: 0.049 µM
[3]
  Ki: 0.004 µM

## CC1=CCN(C(=O)[C@H](Cc2cccc(C(=N)N)c2)NS(=O)(=O)c2ccc3c(c2)CN(Cc2ccccc2)CC3)[C@@H](C(=O)O)C1 [Example 10, 1-[N-(2-Benzyl-1,2,3,4-tetrahydroisoquinoline-7-sulphonyl)-3-amidino-(S)-phenylalanyl]-4-methyl-1,2,3,6-tetrahydropyridine-2(R)-carboxylic acid dihydrochloride]
[1]
  Ki: 0.18 µM
[2]
  Ki: 0.048 µM
[3]
  Ki: 0.001 µM

## CC1=CCN(C(=O)[C@H](Cc2cccc(C(=N)N)c2)NS(=O)(=O)c2ccc3c(c2)CCN(C)C3)[C@@H](C(=O)O)C1 [Example 2, 4-Methyl-1-[N-(2-methyl-1,2,3,4-tetrahydroisoquinoline-6-sulphonyl)-3-amidino-(S)-phenylalanyl]-1,2,3,6-tetrahydropyridine-2(R)-carboxylic acid dihydrochloride]
[1]
  Ki: 6.1 µM
[2]
  Ki: 0.057 µM
[3]
  Ki: 0.0039 µM
